Measured values published in patent US20080096848A1, “Substituted N-Aryl-9-Oxo-9H-Fluorene-1-Carboxamides and Analogs as Activators of Caspases and Inducers of Apoptosis” (CYTOVIA INC., priority 2004, published 2008).
Like-named read-outs stand apart in the source and are kept apart here.

System: T-47D
Test: Caspase cascade activation assay (Ac-DEVD-R110 fluorogenic substrate) in T-47D cells
Type: cell-based, Human
Details: 24 h incubation; for Caspase activity (Ratio): ratio of net RFU (T=3 h) of test compound to control, 0.16 to 10 μM final; for EC50: sigmoidal dose-response, read-out: Caspase potency EC50
Procedure: Human breast cancer cell lines T-47D was grown according to media component mixtures designated by American Type Culture Collection+10% FCS (Invitrogen Corporation), in a 5% CO2-95% humidity incubator at 37° C. T-47D and ZR-75-1 cells were maintained at a cell density between 30 and 80% confluency and for HL-60 at a cell density of 0.1 to 0.6×10^6 cells/mL. Cells were harvested at 600×g and resuspended at 0.65×10^6 cells/mL into appropriate media+10% FCS. An aliquot of 45 μL of cells was added to a well of a 96-well microtiter plate containing 5 μL of a 10% DMSO in RPMI-1640 media solution containing 1.6 to 100 μM of N-(2-methylphenyl)-9-oxo-9H-fluorene-1-carboxamide or other test compound (0.16 to 10 μM final). An aliquot of 45 μL of cells was added to a well of a 96-well microtiter plate containing 5 μL of a 10% DMSO in RPMI-1640 media solution without test compound as the control sample. The samples were mixed by agitation and then incubated at 37° C. for 24 h in a 5% CO2-95% humidity incubator. After incubation, the samples were removed from the incubator and 50 μL of a solution containing 20 μM of N—(Ac-DEVD)-N′-ethoxycarbonyl-R110 fluorogenic substrate (SEQ ID NO:1) (Cytovia, Inc.; U.S. Pat. No. 6,335,429), 20% sucrose (Sigma), 20 mM DTT (Sigma), 200 mM NaCl (Sigma), 40 mM Na PIPES buffer pH 7.2 (Sigma), and 500 μg/mL lysolecithin (Calbiochem) was added. The samples were mixed by agitation and incubated at room temperature. Using a fluorescent plate reader (Model 1420 Wallac Instruments), an initial reading (T=0) was made about 1-2 min after addition of the substrate solution, employing excitation at 485 nm and emission at 530 nm, to determine the background fluorescence of the control sample. After about 3 h of incubation, the samples were read for fluorescence as above (T=3 h).
The Relative Fluorescence Unit values (RFU) were used to calculate the sample readings as follows: RFU(T=3h)−Control RFU(T=0)=Net RFU(T=3h)
The activity of caspase cascade activation was determined by the ratio of the net RFU value for N-(2-methylphenyl)-9-oxo-9H-fluorene-1-carboxamide and other test compounds to that of control samples. The EC50 (nM) was determined by a sigmoidal dose-response calculation (Prism 2.0, GraphPad Software Inc.).

Row | SMILES | EC50 (Homo sapiens, T47D, 24 h) [µM] | EC50 [µM] | EC50 (Hydrochloride) [µM] | Caspase activity (Ratio)
1 | Cc1cccc(C)c1NC(=O)c1cccc2c1C(=O)c1ccccc1-2 [Example 7, N-(2,6-Dimethylphenyl)-9-oxo-9H-fluorene-1-carboxamide] | > 10 | – | – | 1.4
2 | O=C(Nc1ccccc1Cl)c1cccc2c1C(=O)c1ccccc1-2 [N-(2-Cholorophenyl)-9-oxo-9H-fluorene-1-carboxamide] | – | 1.05 | – | 7.4
3 | O=C(Nc1ccccc1N1CCOCC1)c1cccc2c1C(=O)c1ccccc1-2 [Example 1, N-(2-Morpholinophenyl)-9-oxo-9H-fluorene-1-carboxamide] | 5.67 | – | – | 3.1
4 | O=C(Nc1ccccc1-n1ccnc1)c1cccc2c1C(=O)c1ccccc1-2 [Example 4, N-(2-(1H-Imidazol-1-yl)-phenyl)-9-oxo-9H-fluorene-1-carboxamide] | > 10 | – | – | 1.4
5 | CN1CCN(Cc2ccccc2NC(=O)c2cccc3c2C(=O)c2ccccc2-3)CC1 [Example 22, N-(2-(4-Methylpiperazin-1-yl-methyl)phenyl)-9-oxo-9H-fluorene-1-carboxamide] | > 10 | – | – | 1.0
6 | Cc1ccccc1NC(=O)c1cccc2c1C(O)c1ccccc1-2 (stereo not drawn) [Example 36, 9-Hydroxy-N-(2-methylphenyl)-9H-fluorene-1-carboxamide] | 3.7 | – | – | 3.3
7 | O=C(Nc1ccccc1-n1cccn1)c1cccc2c1-c1ccccc1S2(=O)=O [Example 33, 9,9-Dioxo-N-(2-(1H-pyrazol-1-yl)phenyl)-dibenzothiophene-1-carboxamide] | – | > 10 | – | 1.6
8 | O=C(Nc1ccccc1-n1cccn1)c1ccc([N+](=O)[O-])c2c1C(=O)c1cc([N+](=O)[O-])ccc1-2 [Example 31, 4,7-Dinitro-N-(2-(1H-pyrazol-1-yl)phenyl)-9-oxo-9H-fluorene-1-carboxamide] | 6.05 | – | – | 2.3
9 | O=C(Nc1ccccc1)c1cccc2c1C(=O)c1ccccc1-2 [Example 6, 9-Oxo-N-phenyl-9H-fluorene-1-carboxamide] | > 10 | – | – | 1.9
10 | O=C(Nc1ccccc1-c1nnn[nH]1)c1cccc2c1C(=O)c1ccccc1-2 [Example 8, N-(2-(1H-tetrazol-5-yl)phenyl)-9-oxo-9H-fluorene-1-carboxamide] | > 10 | – | – | 1.1
11 | O=C(Nc1ccccc1-n1cccc1)c1cccc2c1C(=O)c1ccccc1-2 [Example 2, N-(2-(1H-Pyrrolo-1-yl)-phenyl)-9-oxo-9H-fluorene-1-carboxamide] | – | 2.23 | – | 4.2
12 | Cc1cccnc1NC(=O)c1cccc2c1C(=O)c1ccccc1-2 [Example 11, N-(3-Methylpyridin-2-yl)-9-Oxo-9H-fluorene-1-carboxamide] | > 10 | – | – | 1.2
13 | O=C(Nc1ccccc1OC(F)F)c1cccc2c1C(=O)c1ccccc1-2 [N-(2-Difluoromethoxyphenyl)-9-oxo-9H-fluorene-1-carboxamide] | 0.688 | – | – | 5.9
14 | CC1CCCCC1NC(=O)c1cccc2c1C(=O)c1ccccc1-2 (stereo not drawn) [Example 18, N-(2-Methylcyclohexyl)-9-oxo-9H-fluorene-1-carboxamide] | > 10 | – | – | 1.8
15 | O=C(Nc1ccccc1F)c1cccc2c1C(=O)c1ccccc1-2 [N-(2-Fluorophenyl)-9-oxo-9H-fluorene-1-carboxamide] | 1.96 | – | – | 5.7

More lines, main results first:

Row | EC50 (Homo sapiens, T47D, 24 h) [µM] | EC50 [µM] | EC50 (Hydrochloride) [µM] | SMILES | Caspase activity (Ratio)
16 | > 10 | – | – | O=C(Nc1ccccc1-n1cccn1)c1cccc2oc3ccccc3c12 [Example 23, N-(2-(1H-pyrazol-1-yl)phenyl)-dibenzofuran-1-carboxamide] | 1.1
17 | 2.88 | – | – | O=C(Nc1ccccc1CBr)c1cccc2c1C(=O)c1ccccc1-2 [Example 14, N-(2-Bromomethylphenyl)-9-oxo-9H-fluorene-1-carboxamide] | 5.7
18 | > 10 | – | – | Nc1ccccc1NC(=O)c1cccc2c1C(=O)c1ccccc1-2 [Example 26, N-(2-Amino-phenyl)-9-oxo-9H-fluorene-1-carboxamide] | 1.2
19 | > 10 | – | – | Cc1cccc(NC(=O)c2cccc3c2C(=O)c2ccccc2-3)c1 [N-(3-Methylphenyl)-9-oxo-9H-fluorene-1-carboxamide] | 1.3
20 | 1.5 | – | – | O=C(Nc1ccccc1-c1ccccc1)c1cccc2c1C(=O)c1ccccc1-2 [N-(2-Phenylphenyl)-9-oxo-9H-fluorene-1-carboxamide] | 8.1
21 | > 10 | – | – | O=C(Nc1ccccn1)c1cccc2c1C(=O)c1ccccc1-2 [Example 5, 9-Oxo-N-(pyridin-2-yl)-9H-fluorene-1-carboxamide] | 1.2
22 | – | 6 | – | O=C(Nc1cccc2ccccc12)c1cccc2c1C(=O)c1ccccc1-2 [N-(1-Naphthalen-1-yl)-9-oxo-9H-fluorene-1-carboxamide] | 3.2
23 | – | – | > 10 | CN(C)Cc1ccccc1NC(=O)c1cccc2c1C(=O)c1ccccc1-2.Cl [Example 24, N-(2-Dimethylaminomethyl-phenyl)-9-oxo-9H-fluorene-1-carboxamide Hydrochloride] | 1.8
24 | > 10 | – | – | O=C(Nc1ccccc1O)c1cccc2c1C(=O)c1ccccc1-2 [Example 35, N-(2-Hydroxy-phenyl)-9-oxo-9H-fluorene-1-carboxamide] | 1.3
25 | > 10 | – | – | Cc1ccccc1N(C)C(=O)c1cccc2c1C(=O)c1ccccc1-2 [Example 17, N-Methyl-N-(2-methylphenyl)-9-oxo-9H-fluorene-1-carboxamide] | 1.4
26 | 2.51 | – | – | O=C(Nc1ccccc1[N+](=O)[O-])c1cccc2c1C(=O)c1ccccc1-2 [Example 25, N-(2-Nitrophenyl)-9-oxo-9H-fluorene-1-carboxamide] | 2.2
27 | 3.52 | – | – | O=C(Nc1ccccc1Br)c1cccc2c1C(=O)c1ccccc1-2 [N-(2-Bromophenyl)-9-oxo-9H-fluorene-1-carboxamide] | 9.1
28 | 2.07 | – | – | CCOc1ccccc1NC(=O)c1cccc2c1C(=O)c1ccccc1-2 [N-(2-Ethoxyphenyl)-9-oxo-9H-fluorene-1-carboxamide] | 8.2
29 | 0.881 | – | – | Nc1ccc2c(c1)C(=O)c1c(C(=O)Nc3ccccc3-n3cccn3)cccc1-2 [Example 30, 7-Amino-N-(2-(1H-pyrazol-1-yl)phenyl)-9-oxo-9H-fluorene-1-carboxamide] | 4.4
30 | 2 | – | – | N#Cc1ccccc1NC(=O)c1cccc2c1C(=O)c1ccccc1-2 [N-(2-Cyanophenyl)-9-oxo-9H-fluorene-1-carboxamide] | 2.3
31 | > 10 | – | – | O=C(Nc1ccccc1-n1cccn1)c1cccc2c3c([nH]c12)CCCC3 [Example 16, N-(2-(1H-pyrazol-1-yl)phenyl)-6,7,8,9-tetrahydro-5H-carbazole-1-carboxamide] | 0.8
32 | > 10 | – | – | O=C(Nc1ccccc1-n1cccn1)c1cccc2c1OCC2 [Example 19, N-(2-(1H-pyrazol-1-yl)phenyl)-2,3-dihydrobenzofuran-7-carboxamide] | 0.9
33 | 0.419 | – | – | COC(=O)c1ccccc1NC(=O)c1cccc2c1C(=O)c1ccccc1-2 [N-(2-(Methoxycarbonyl)phenyl)-9-oxo-9H-fluorene-1-carboxamide] | 7.1
34 | > 10 | – | – | Cc1ccncc1NC(=O)c1cccc2c1C(=O)c1ccccc1-2 [Example 21, N-(4-Methylpyridin-3-yl)-9-oxo-9H-fluorene-1-carboxamide] | 0.8
35 | 1.92 | – | – | O=C(Nc1ccccc1N1CCCCC1)c1cccc2c1C(=O)c1ccccc1-2 [Example 3, 9-Oxo-N-(2-(piperidin-1-yl)-phenyl)-9H-fluorene-1-carboxamide] | 7.4
36 | > 10 | – | – | O=C(Nc1ccccc1-n1cccn1)c1cccc2sc3c(c12)C(=O)CC=C3 [Example 34, 9-Oxo-N-(2-(1H-pyrazol-1-yl)phenyl)-dibenzothiophene-1-carboxamide] | 1.2
